The values that follow come from patent publication US5486526A, “Histamine H3 -receptor antagonists and therapeutic uses thereof” (The University of Toledo, priority 1993, dated 1996).

Like-named read-outs stand apart in the source and are kept apart here.

Data set [1] concerns animal toxicity studies or in clinical usage. Particulars: cited from earlier work.
The next data set deals with T1, histamine H3 receptor (Rattus norvegicus, UniProt Q9QYN8).
T1 construct: from tissue
Description: Inhibition of [^3 H]-N-alpha-methylhistamine binding to rat brain membranes. The procedure:
A series of compounds were prepared and tested for their histamine H3 receptor antagonist activity. The antagonist activity of the compounds was detected by observing inhibition of (^3 H)-N-(alpha)methylhistamine activity on rat brain membranes.
The various compounds were tested for the ability to bind to the histamine H3 receptor. A binding assay in a rat brain membrane preparation, based on inhibition of binding of [^3 H]-N-alpha-methylhistamine using excess unlabeled alpha-methylhistamine to account for nonspecific binding, was developed.

A further data set has as its system brain in rats. Conditions: cited from earlier work.
Data set [2] deals with H3 receptors in the cortex. The data set can be described thus: Blood-brain barrier penetration by ex vivo binding of [^3 H]-N^α -methylhistamine in rat cortex. The procedure: Blood-brain barrier penetration in rats was assessed by an ex vivo binding procedure. Young adult male Long-Evans rats were injected i.p. with saline or H3 antagonists in saline. At various times after injection animals were sacrificed, the cortex was removed, homogenized in 50 mM Na/K-phosphate buffer, pH 7.4, and the binding of 1 nM [^3 H]-N^α -methylhistamine was measured using 400 μg protein of the homogenate. Nonspecific binding was accounted for by the inclusion of excess thioperamide in some samples. Under these conditions, the binding was approximately 90% specific.

Another data set has as its target histamine H3 receptors. Particulars: in vitro; cited from earlier work.
The next data set deals with Male albino CF-1 mice. Description: Behavioral effects in mice: sleep induced by (R)α-methylhistamine. Format: in vivo, mouse. As to the method:
The overall strategy to show central nervous system antagonist activity was to challenge effects of the agonist (R)α-methylhistamine. Therefore, the first objective was to establish a dose response curve for behavioral effects of (R)α-methylhistamine. Male albino CF-1 mice weighing 20-30 g were used. Saline or (R)α-methylhistamine in saline was injected i.p. in a volume ≤0.4 ml. […] Animals were scored for the presence (1) or absence (0) of the behavior and the results were reported as the accumulated score for a 30 minute period (maximum score=9).
To assess the effects of antagonists, they were administered with the (R)α-methylhistamine in saline.

The test system of the next data set is peptic ulcer patients. Particulars: cited from earlier work.

T1 sequence (Q9QYN8 whole entry): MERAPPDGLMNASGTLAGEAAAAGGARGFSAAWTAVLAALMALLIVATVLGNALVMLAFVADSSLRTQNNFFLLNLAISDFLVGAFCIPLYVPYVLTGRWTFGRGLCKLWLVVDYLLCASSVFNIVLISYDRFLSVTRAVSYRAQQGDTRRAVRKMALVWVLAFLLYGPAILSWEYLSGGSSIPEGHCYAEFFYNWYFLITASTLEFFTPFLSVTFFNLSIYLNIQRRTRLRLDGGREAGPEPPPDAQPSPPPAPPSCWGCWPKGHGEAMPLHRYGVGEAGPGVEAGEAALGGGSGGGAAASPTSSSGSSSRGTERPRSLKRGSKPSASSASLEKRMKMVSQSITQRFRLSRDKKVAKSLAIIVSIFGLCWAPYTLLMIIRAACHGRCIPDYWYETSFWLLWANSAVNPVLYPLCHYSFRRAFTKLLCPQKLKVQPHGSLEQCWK

Regarding `CN/C(=N/CCSCc1nc[nH]c1C)NC#N` [cimetidine], the “granulocytopenia or other side effects (in words)” value in data set [1] was “did not cause granulocytopenia, or any other side effects”.

Regarding `S=C(NC1CCCCC1)N1CCC(c2cnc[nH]2)CC1` [Thioperamide, reference compound], the IC50 was 4 ± 0.6 nM on histamine H3 receptor and 4 nM on histamine H3 receptor (read-out: affinity, repeated in text). For the same compound, the “dose required in vivo to inhibit histamine release from the brain (in words)” value in the data set on brain in rats is recorded as “relatively high doses are required in vivo”. Besides, the “binding of [^3 H]-N^α -methylhistamine to cortex (in words)” value in data set [2] (2, 5, and 10 mg/kg i.p., 15 min after injection) was “decreased the binding of [^3 H]-N^α -methylhistamine”. Besides, the “penetration of the blood-brain barrier (in words)” value in data set [2] (thioperamide 2, 5, 10 mg/kg i.p., 15 min) is listed as “able to penetrate the blood-brain barrier”. In addition, the Ki at histamine H3 receptors is 4.3 nM. Besides, the “soporific effect of (R)α-methylhistamine (in words)” value in the data set on Male albino CF-1 mice (30 mg/kg of (R)α-methylhistamine) was “able to inhibit the soporific effect”. Besides, the “behavior with antagonist alone (in words)” value in the data set on Male albino CF-1 mice (in the absence of the α-methylhistamine H3 receptor agonist) is given as “animals were very active, exhibiting normal behaviors”.

Turning to `C/N=C(\S)NCCSCc1[nH]cnc1C` [metiamide], the “granulocytopenia (in words)” value in the data set on peptic ulcer patients was “low incidence of granulocytopenia”.

In general, Ki refers to the dissociation constant of the complex between target and ligand, obtained from inhibition or displacement.
